Measured values taken from patent US8791132B2, “Compounds and methods for treatment of hypertension” (Medivation Technologies, Inc., priority 2011, dated 2014).
Several values for one entry are separate records, joined by “and”; a condition that tells them apart may be missing. Identical values can stand only once. Like-named read-outs stand apart in the source and are kept apart here.

Tests used:
[1] = biological target: T1, rat adrenergic α1B receptor (Rattus norvegicus, UniProt P15823); experiment: Radioligand binding, adrenergic α1B ([3H]Prazosin); conditions: for Percentage inhibition of ligand binding, Adrenergic α1B / Percentage inhibition of ligand binding, Adrenergic α1B (0.1 μM): 0.1 µM
T1 construct: rat adrenergic α1B receptor obtained from Wistar Rat liver; from tissue; host or cells: Wistar rat liver
T1 sequence (P15823 1-515): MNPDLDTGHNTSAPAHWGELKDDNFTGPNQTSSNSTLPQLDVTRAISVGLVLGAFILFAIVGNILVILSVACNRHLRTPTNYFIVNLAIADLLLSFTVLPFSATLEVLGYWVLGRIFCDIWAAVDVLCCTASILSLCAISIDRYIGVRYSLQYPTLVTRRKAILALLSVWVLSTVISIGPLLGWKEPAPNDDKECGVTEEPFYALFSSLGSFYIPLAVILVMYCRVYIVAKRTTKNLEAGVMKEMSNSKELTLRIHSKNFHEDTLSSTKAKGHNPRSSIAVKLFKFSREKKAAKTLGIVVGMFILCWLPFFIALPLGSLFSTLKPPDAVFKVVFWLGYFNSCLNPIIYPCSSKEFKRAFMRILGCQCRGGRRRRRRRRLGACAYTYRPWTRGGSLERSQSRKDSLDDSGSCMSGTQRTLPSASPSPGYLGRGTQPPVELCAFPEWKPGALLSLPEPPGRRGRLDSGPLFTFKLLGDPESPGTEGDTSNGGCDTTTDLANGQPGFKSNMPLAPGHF
Procedure, shortened: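 Rat α1B receptor from Wistar rat liver was incubated with 0.25 nM [3H]prazosin for 60 min at 25 °C in 50 mM Tris-HCl, pH 7.4, 0.5 mM EDTA. Non-specific binding was defined with 10 μM phentolamine. Bound radioligand was measured by filtration and counting, reported as percent inhibition of specific binding.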

[2] = biological target: T2, human recombinant adrenergic α2B receptor (Homo sapiens, UniProt P18089); experiment: Radioligand binding, adrenergic α2B ([3H]Rauwolscine); conditions: for Percentage inhibition of ligand binding, Adrenergic α2B / Percentage inhibition of ligand binding, Adrenergic α2B (0.03 μM): 0.03 µM; for Ki: read-out: Ki α2B
T2 construct: expressed in transfected cells; host or cells: CHO-K1
T2 sequence (P18089 1-450): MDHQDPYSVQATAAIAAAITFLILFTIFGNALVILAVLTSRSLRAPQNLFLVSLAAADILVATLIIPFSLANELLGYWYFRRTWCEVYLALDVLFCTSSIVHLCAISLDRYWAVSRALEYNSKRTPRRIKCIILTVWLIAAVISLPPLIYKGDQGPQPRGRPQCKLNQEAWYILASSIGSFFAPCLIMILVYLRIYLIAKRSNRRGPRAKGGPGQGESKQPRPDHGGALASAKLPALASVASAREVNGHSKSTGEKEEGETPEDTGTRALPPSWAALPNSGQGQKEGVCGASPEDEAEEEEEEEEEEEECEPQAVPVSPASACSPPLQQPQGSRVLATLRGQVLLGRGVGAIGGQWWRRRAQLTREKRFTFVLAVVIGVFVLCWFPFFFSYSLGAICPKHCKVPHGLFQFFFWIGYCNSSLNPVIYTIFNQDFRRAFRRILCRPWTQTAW
Procedure, shortened: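 Receptor expressed in CHO-K1 cells, assayed in 50 mM Tris-HCl pH 7.4 with 12.5 mM MgCl2, 1 mM EDTA and 0.2% BSA. Compounds were incubated with 2.5 nM [3H]Rauwolscine for 60 min at 25° C; 10 μM Prazosin defined non-specific binding. Filter counting gave percent inhibition of specific binding.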

[3] = biological target: T3, human recombinant adrenergic α2A receptor (Homo sapiens, UniProt P08913); experiment: Radioligand binding, adrenergic α2A ([3H]MK-912); conditions: for Percentage inhibition of ligand binding, Adrenergic α2A / Percentage inhibition of ligand binding, Adrenergic α2A (0.1 μM): 0.1 µM
T3 construct: expressed in transfected cells; host or cells: insect Sf9 cells
T3 sequence (P08913 1-465): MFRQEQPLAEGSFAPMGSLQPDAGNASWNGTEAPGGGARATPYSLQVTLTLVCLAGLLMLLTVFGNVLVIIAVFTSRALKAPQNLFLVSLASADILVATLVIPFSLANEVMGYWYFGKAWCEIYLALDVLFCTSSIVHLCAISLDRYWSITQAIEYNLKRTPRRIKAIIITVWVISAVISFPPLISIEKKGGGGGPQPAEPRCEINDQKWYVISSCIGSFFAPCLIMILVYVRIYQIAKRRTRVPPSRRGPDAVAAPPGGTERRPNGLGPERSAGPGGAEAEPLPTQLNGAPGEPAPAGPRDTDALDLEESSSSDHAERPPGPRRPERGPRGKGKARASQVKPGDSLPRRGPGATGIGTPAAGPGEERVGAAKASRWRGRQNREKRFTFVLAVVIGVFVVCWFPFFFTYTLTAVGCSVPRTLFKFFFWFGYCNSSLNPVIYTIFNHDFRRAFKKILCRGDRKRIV
Procedure, shortened: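 Sf9 membranes, 1 nM [3H]MK-912, 60 min, 25 °C, Tris-HCl pH 7.4/MgCl2/EDTA buffer. NSB: 10 μM WB-4101. Filtration, counting; % inhibition of specific binding.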

[4] = compound at 0.1 μM, [3H]Prazosin, repeat assays, each datapoint shown
[5] = compound at 0.03 μM, [3H]Rauwolscine, repeat assays, each datapoint shown
[6] = compound at 0.1 μM, [3H]MK-912, repeat assays, each datapoint shown
[7] = 0.1 μM compound, read-out: Percentage inhibition of ligand binding, Adrenergic α1B
[8] = 0.03 μM compound, read-out: Percentage inhibition of ligand binding, Adrenergic α2B
[9] = 0.1 μM compound, read-out: Percentage inhibition of ligand binding, Adrenergic α2A
[10] = compound at 0.1 μM, [3H]Prazosin, repeat assays, each datapoint shown, read-out: Percentage inhibition of ligand binding, Adrenergic α1B
[11] = compound at 0.03 μM, [3H]Rauwolscine, repeat assays, each datapoint shown, read-out: Percentage inhibition of ligand binding, Adrenergic α2B
[12] = compound at 0.1 μM, [3H]MK-912, repeat assays, each datapoint shown, read-out: Percentage inhibition of ligand binding, Adrenergic α2A
[13] = compound at 0.1 μM, [3H]Prazosin, repeat datapoints each shown
[14] = compound at 0.03 μM, [3H]Rauwolscine, repeat datapoints each shown
[15] = compound at 0.1 μM, [3H]MK-912, repeat datapoints each shown
[16] = read-out: Percentage inhibition of ligand binding, Adrenergic α1B (0.1 μM), compound at 0.1 μM, [3H]Prazosin, repeat datapoints each shown
[17] = read-out: Percentage inhibition of ligand binding, Adrenergic α2B (0.03 μM), compound at 0.03 μM, [3H]Rauwolscine, repeat datapoints each shown
[18] = read-out: Percentage inhibition of ligand binding, Adrenergic α2A (0.1 μM), compound at 0.1 μM, [3H]MK-912, repeat datapoints each shown

## Cc1ccc2c(c1)c1c(n2CC(C)(O)c2ccccn2)CN(C)CC1 (single isomer, unassigned) [16a, 1-(2,6-dimethyl-1,2,3,4-tetrahydro-β-carbolin-9-yl)-2-pyridin-2-yl-propan-2-ol]
[1]; [4]
  Percentage inhibition of ligand binding, Adrenergic α1B: 47%
[2]; [5]
  Percentage inhibition of ligand binding, Adrenergic α2B: 33%
[3]; [6]
  Percentage inhibition of ligand binding, Adrenergic α2A: 9%

## Cc1ccc2c(c1)c1c(n2CC(O)c2ccncc2)CC2CCCN2C1 (single isomer, unassigned) [76d]
[1]; [4]
  Percentage inhibition of ligand binding, Adrenergic α1B: 51%
[2]; [5]
  Percentage inhibition of ligand binding, Adrenergic α2B: 91%
[3]; [6]
  Percentage inhibition of ligand binding, Adrenergic α2A: 40%

## Cc1ccc2c(c1)c1c(n2CC(NC2CCCC2)c2ccncc2)CCN(C)C1 (centres unmarked) [II-9, cyclopentyl-[2-(2,8-dimethyl-1,2,3,4-tetrahydro-pyrido[4,3-b]indol-5-yl)-1-pyridin-4-yl-ethyl]-amine]
[1]; [7]
  inhibition at 0.1 µM: 30%
[2]; [8]
  inhibition at 0.03 µM: 78%
[3]; [9]
  inhibition at 0.1 µM: 7%

## COc1ccc(C(O)Cn2c3c(c4cc(C)ccc42)CN(C)CC3)cc1OC (centres unmarked) [compound 66, 1-(3,4-dimethoxy-phenyl)-2-(2,8-dimethyl-1,2,3,4-tetrahydro-pyrido[4,3-b]indol-5-yl)-ethanol]
[1]; [10]
  inhibition at 0.1 µM: 48%
[2]; [11]
  inhibition at 0.03 µM: 69%
[3]; [12]
  inhibition at 0.1 µM: 15%

## Cc1ccc2c(c1)c1c(n2CC(O)c2ccncc2)CCN2CCCCC12 (single isomer, unassigned) [47b]
[1]; [4]
  Percentage inhibition of ligand binding, Adrenergic α1B: 70%
[2]; [5]
  Percentage inhibition of ligand binding, Adrenergic α2B: 119%
[3]; [6]
  Percentage inhibition of ligand binding, Adrenergic α2A: 41%

## C/C(=C/n1c2c(c3cc(C)ccc31)CN(C)CC2)c1cn[nH]c1 [compound 80]
[1]; [10]
  inhibition at 0.1 µM: 49%
[2]; [11]
  inhibition at 0.03 µM: 81%
[3]; [12]
  inhibition at 0.1 µM: 12%

## Cc1ccc2c(c1)c1c(n2CC(O)C2CCCCC2)CCN(C)C1 (centres unmarked) [II-91]
[1]; [7]
  inhibition at 0.1 µM: 16%
[2]; [8]
  inhibition at 0.03 µM: 25%
[3]; [9]
  inhibition at 0.1 µM: -2%

## Cc1ccc2c(c1)c1c(n2CC(C)(O)c2ccc(C(N)=O)nc2)CCN(C)C1 (single isomer, unassigned) [II-136b, 5-(1-(1,2,3,4-tetrahydro-2,8-dimethylpyrido[4,3-b]indol-5-yl)-2-hydroxypropan-2-yl)pyridine-2-carboxamide]
[1]; [13]
  Percentage inhibition of ligand binding, Adrenergic α1B (0.1 μM): 31%
[2]; [14]
  Percentage inhibition of ligand binding, Adrenergic α2B (0.03 μM): 32%
[3]; [15]
  Percentage inhibition of ligand binding, Adrenergic α2A (0.1 μM): 5%

## Cc1cnc2c(c1)c1c(n2CC(O)c2ccc(C(N)=O)nc2)CCN(C)C1 (centres unmarked) [II-111, 5-[2-(3,6-dimethyl-5,6,7,8-tetrahydro-1,6,9-triaza-fluoren-9-yl)-1-hydroxy-ethyl]-pyridine-2-carboxylic acid amide]
[1]; [16]
  inhibition at 0.1 µM: 42%
[2]; [17]
  inhibition at 0.03 µM: 35%
[3]; [18]
  inhibition at 0.1 µM: 3%

## Cc1ccc2c(c1)c1c(n2CC(C)(O)c2ccc(F)cc2)CCN2CCCC12 (single isomer, unassigned) [II-121b, 2-(4-fluoro-phenyl)-1-(9-methyl-1,2,3,4,5,10c-hexahydro-3a,6-diaza-cyclopenta[c]fluoren-6-yl)-propan-2-ol]
[1]; compound at 0.03 μM, [3H]Prazosin, repeat datapoints each shown, 0.03 µM
  Percentage inhibition of ligand binding, Adrenergic α1B (0.03 μM): 77%
[1]; [13]
  Percentage inhibition of ligand binding, Adrenergic α1B (0.1 μM): 93% and 96%
[2]; [14]
  Percentage inhibition of ligand binding, Adrenergic α2B (0.03 μM): 100% and 103%
[2]
  Ki: 0.22 nM
[3]
  Ki: 9.18 nM
[3]; compound at 0.03 μM, [3H]MK-912, repeat datapoints each shown, 0.03 µM
  Percentage inhibition of ligand binding, Adrenergic α2A (0.03 μM): 54%
[3]; [15]
  Percentage inhibition of ligand binding, Adrenergic α2A (0.1 μM): 80% and 85%

## Cc1ccc2c(c1)c1c(n2CC(O)c2ccncc2)CC2CCCCN2C1 (racemic) [75d]
[1]; [4]
  Percentage inhibition of ligand binding, Adrenergic α1B: 26%
[2]; [5]
  Percentage inhibition of ligand binding, Adrenergic α2B: 102%
[3]; [6]
  Percentage inhibition of ligand binding, Adrenergic α2A: 49%

## Cc1ccc2c(c1)c1c(n2CC(C)(O)c2ccc(C)nc2)CCN(C)C1 (single isomer, unassigned) [29a]
[1]; compound at 0.03 μM, [3H]Prazosin, repeat assays, each datapoint shown, read-out: Percentage inhibition of ligand binding, Adrenergic α1B
  inhibition at 0.03 µM: 19%
[1]; [4]
  Percentage inhibition of ligand binding, Adrenergic α1B: 38%
[1]; [10]
  inhibition at 0.1 µM: 32%
[2]; [5]
  Percentage inhibition of ligand binding, Adrenergic α2B: 100%
[2]; [11]
  inhibition at 0.03 µM: 98%
[2]
  Ki: 1.09 nM
[3]
  Ki: 77.2 nM
[3]; compound at 0.03 μM, [3H]MK-912, repeat assays, each datapoint shown, read-out: Percentage inhibition of ligand binding, Adrenergic α2A
  inhibition at 0.03 µM: 16%
[3]; [6]
  Percentage inhibition of ligand binding, Adrenergic α2A: 39%
[3]; [12]
  inhibition at 0.1 µM: 35%

## Cc1ccc2c(c1)c1c(n2CC(O)c2ccnc(C(=O)O)c2)CCN2CCCC12 (centres unmarked) [compound 168]
[1]; [16]
  inhibition at 0.1 µM: 23%
[2]; [17]
  inhibition at 0.03 µM: 32%
[3]; [18]
  inhibition at 0.1 µM: 16%

## Cc1ccc2c(c1)c1c(n2CC(OC(=O)c2ccncc2)c2ccncc2)CCN(C)C1 (single isomer, unassigned) [147b, isonicotinic acid 2-(2,8-dimethyl-1,2,3,4-tetrahydro-pyrido[4,3-b]indol-5-yl)-1-pyridin-4-yl-ethylester]
[1]; [13]
  Percentage inhibition of ligand binding, Adrenergic α1B (0.1 μM): 82%
[2]; [14]
  Percentage inhibition of ligand binding, Adrenergic α2B (0.03 μM): 93%
[3]; [15]
  Percentage inhibition of ligand binding, Adrenergic α2A (0.1 μM): 36%

## Cc1ccc2c(c1CO)c1c(n2CC(O)c2ccncc2)CCN(C)C1 (centres unmarked) [II-150, 2-(9-(hydroxymethyl)-2,8-dimethyl-3,4-dihydro-1H-pyrido[4,3-b]indol-5(2H)-yl)-1-(pyridin-4-yl)ethanol]
[1]; [16]
  inhibition at 0.1 µM: 14%
[2]; [17]
  inhibition at 0.03 µM: 30%
[3]; [18]
  inhibition at 0.1 µM: 5%
